Consider 39 compounds from patent publication US20050197350A1, “Novel quinoline, tetrahydroquinazoline, and pyrimidine derivatives and methods of treatment related to the use thereof” (TAISHO PHARMACEUTICAL CO., LTD., priority 2003, published 2005).

In this assay the test system is MCH receptors. The experiment in a line: MCH receptor activity class (method not given). The conditions noted are these: class 1-3 by percent of control at 10^-7 M or IC50.

`Cc1ccc(C(=O)N[C@H]2CC[C@@H](Nc3nc4c(c(N(C)C)n3)CCCC4)CC2)cc1` [compound 487]: the class is reported as 2 (Class 2: The value of percent of control at 10^−7 M was from 40% to 60% or the value of IC′50 was from 50 nM to 200 nM.).

In the case of `CN(C)c1nc(N[C@H]2CC[C@@H](NC(=O)c3cccs3)CC2)nc2c1CCCC2` [compound 488, N-(cis-4-{[4-(dimethylamino)-5,6,7,8-tetrahydroquinazolin-2-yl]amino}cyclohexyl)thiophene-2-carboxamide], the class was 3 (Class 3 The value of percent of control at 10^−7 M was more than 60% or the value of IC50 was more than 200 nM.). `CN(C)c1nc(N[C@H]2CC[C@@H](NC(=O)Cc3cccs3)CC2)nc2c1CCCC2` [compound 489]: the class is listed as 3 (Class 3 The value of percent of control at 10^−7 M was more than 60% or the value of IC50 was more than 200 nM.). With `CN(C)c1nc(N[C@H]2CC[C@@H](NC(=O)c3cccc(OC(F)(F)F)c3)CC2)nc2c1CCCC2` [compound 490], the class is 2 (Class 2: The value of percent of control at 10^−7 M was from 40% to 60% or the value of IC′50 was from 50 nM to 200 nM.). As for `CN(C)c1nc(NC2CCC(NC(=O)OCc3ccccc3)CC2)nc2c1CCCC2` (stereo not drawn) [compound 491], the class was 3 (Class 3 The value of percent of control at 10^−7 M was more than 60% or the value of IC50 was more than 200 nM.). As for `CN(C)c1nc(NC2CCC(NC(=O)OCc3ccc([N+](=O)[O-])cc3)CC2)nc2c1CCCC2` (stereo not drawn) [compound 492], the class is reported as 3 (Class 3 The value of percent of control at 10^−7 M was more than 60% or the value of IC50 was more than 200 nM.). As for `Cc1cc(C(=O)N[C@H]2CC[C@@H](Nc3nc4c(c(N(C)C)n3)CCCC4)CC2)ccc1Br` [compound 493], the class was 2 (Class 2: The value of percent of control at 10^−7 M was from 40% to 60% or the value of IC′50 was from 50 nM to 200 nM.). The figure for `CN(C)c1nc(N[C@H]2CC[C@@H](NC(=O)c3cccc(I)c3)CC2)nc2c1CCCC2` [compound 494] is 1 (Class 1: The value of percent of control at 10^−7 M was less than 40% or the value of IC50 was less than 50 nM.); for `CN(C)c1nc(N[C@H]2CC[C@@H](NC(=O)c3cccc(Cl)c3F)CC2)nc2c1CCCC2` [compound 495] it is 3 (Class 3 The value of percent of control at 10^−7 M was more than 60% or the value of IC50 was more than 200 nM.); for `Cc1ccc(C(=O)N[C@H]2CC[C@@H](Nc3nc4c(c(N(C)C)n3)CCCC4)CC2)c(F)c1F` [compound 496] it is 3 (Class 3 The value of percent of control at 10^−7 M was more than 60% or the value of IC50 was more than 200 nM.). `CN(C)c1nc(N[C@H]2CC[C@@H](NC(=O)c3ccc(F)cc3Cl)CC2)nc2c1CCCC2` [compound 497]: the class is reported as 2 (Class 2: The value of percent of control at 10^−7 M was from 40% to 60% or the value of IC′50 was from 50 nM to 200 nM.). Regarding `CN(C)c1nc(N[C@H]2CC[C@@H](NC(=O)c3ccc(F)c(Cl)c3F)CC2)nc2c1CCCC2` [compound 498], the class is 3 (Class 3 The value of percent of control at 10^−7 M was more than 60% or the value of IC50 was more than 200 nM.). The figure for `CN(C)c1nc(N[C@H]2CC[C@@H](NC(=O)CSc3ccccc3)CC2)nc2c1CCCC2` [compound 499] is 3 (Class 3 The value of percent of control at 10^−7 M was more than 60% or the value of IC50 was more than 200 nM.). Take `CN(C)c1nc(N[C@H]2CC[C@@H](NC(=O)c3cccc(C(F)(F)F)c3F)CC2)nc2c1CCCC2` [compound 500]: the class is listed as 3 (Class 3 The value of percent of control at 10^−7 M was more than 60% or the value of IC50 was more than 200 nM.). The figure for `CN(C)c1nc(N[C@H]2CC[C@@H](NC(=O)c3cc(C(F)(F)F)ccc3F)CC2)nc2c1CCCC2` [compound 501] is 3 (Class 3 The value of percent of control at 10^−7 M was more than 60% or the value of IC50 was more than 200 nM.); for `COc1cccc(CC(=O)N[C@H]2CC[C@@H](Nc3nc4c(c(N(C)C)n3)CCCC4)CC2)c1` [compound 503] it is 2 (Class 2: The value of percent of control at 10^−7 M was from 40% to 60% or the value of IC′50 was from 50 nM to 200 nM.). Regarding `CN(C)c1nc(N[C@H]2CC[C@@H](NC(=O)Cc3ccc(F)cc3)CC2)nc2c1CCCC2` [compound 504], the class is reported as 1 (Class 1: The value of percent of control at 10^−7 M was less than 40% or the value of IC50 was less than 50 nM.). As to `COc1ccc(CC(=O)N[C@H]2CC[C@@H](Nc3nc4c(c(N(C)C)n3)CCCC4)CC2)cc1` [compound 505], the class was 2 (Class 2: The value of percent of control at 10^−7 M was from 40% to 60% or the value of IC′50 was from 50 nM to 200 nM.).

With `Cc1cc(C(=O)N[C@H]2CC[C@@H](Nc3nc4c(c(N(C)C)n3)CCCC4)CC2)c(C(F)(F)F)o1` [compound 506], the class is given as 2 (Class 2: The value of percent of control at 10^−7 M was from 40% to 60% or the value of IC′50 was from 50 nM to 200 nM.). For `Cc1cc(C(=O)N[C@H]2CC[C@@H](Nc3nc4c(c(N(C)C)n3)CCCC4)CC2)c(C)o1` [compound 507], the class was 1 (Class 1: The value of percent of control at 10^−7 M was less than 40% or the value of IC50 was less than 50 nM.).

`CCOc1ccccc1C(=O)N[C@H]1CC[C@@H](Nc2nc3c(c(N(C)C)n2)CCCC3)CC1` [compound 508]: the class is listed as 3 (Class 3 The value of percent of control at 10^−7 M was more than 60% or the value of IC50 was more than 200 nM.).

As to `CN(C)c1nc(N[C@H]2CC[C@@H](NC(=O)c3ccc(F)c(Cl)c3)CC2)nc2c1CCCC2` [compound 509], the class is 1 (Class 1: The value of percent of control at 10^−7 M was less than 40% or the value of IC50 was less than 50 nM.). Take `Cc1ccc(C(=O)N[C@H]2CC[C@@H](Nc3nc4c(c(N(C)C)n3)CCCC4)CC2)cc1F` [compound 510]: the class is 2 (Class 2: The value of percent of control at 10^−7 M was from 40% to 60% or the value of IC′50 was from 50 nM to 200 nM.). Regarding `CN(C)c1nc(N[C@H]2CC[C@@H](NC(=O)CC3CCCC3)CC2)nc2c1CCCC2` [compound 511], the class is given as 3 (Class 3 The value of percent of control at 10^−7 M was more than 60% or the value of IC50 was more than 200 nM.). Turning to `COc1cc(OC)cc(C(=O)N[C@H]2CC[C@@H](Nc3nc4c(c(N(C)C)n3)CCCC4)CC2)c1` [compound 512], the class is 1 (Class 1: The value of percent of control at 10^−7 M was less than 40% or the value of IC50 was less than 50 nM.).

In the case of `CN(C)c1nc(N[C@H]2CC[C@@H](NC(=O)c3ccc(C#N)cc3)CC2)nc2c1CCCC2` [compound 513], the class is recorded as 3 (Class 3 The value of percent of control at 10^−7 M was more than 60% or the value of IC50 was more than 200 nM.).

In the case of `CN(C)c1nc(N[C@H]2CC[C@@H](NC(=O)c3cc(C(F)(F)F)cc(C(F)(F)F)c3)CC2)nc2c1CCCC2` [compound 514], the class was 1 (Class 1: The value of percent of control at 10^−7 M was less than 40% or the value of IC50 was less than 50 nM.). As for `CN(C)c1nc(N[C@H]2CC[C@@H](NC(=O)/C=C/c3ccc([N+](=O)[O-])cc3)CC2)nc2c1CCCC2` [compound 515], the class is 3 (Class 3 The value of percent of control at 10^−7 M was more than 60% or the value of IC50 was more than 200 nM.).

As to `CN(C)c1nc(N[C@H]2CC[C@@H](NC(=O)Cc3ccccc3Br)CC2)nc2c1CCCC2` [compound 516], the class is listed as 3 (Class 3 The value of percent of control at 10^−7 M was more than 60% or the value of IC50 was more than 200 nM.). As to `Cc1cc(C(=O)N[C@H]2CC[C@@H](Nc3nc4c(c(N(C)C)n3)CCCC4)CC2)ccc1F` [compound 517], the class is recorded as 1 (Class 1: The value of percent of control at 10^−7 M was less than 40% or the value of IC50 was less than 50 nM.).

Take `CN(C)c1nc(N[C@H]2CC[C@@H](NC(=O)c3ccccc3SC(F)F)CC2)nc2c1CCCC2` [compound 518]: the class is reported as 3 (Class 3 The value of percent of control at 10^−7 M was more than 60% or the value of IC50 was more than 200 nM.). For `CN(C)c1nc(N[C@H]2CC[C@@H](NC(=O)c3cc(Cl)sc3Cl)CC2)nc2c1CCCC2` [compound 519, 2,5-dichloro-N-(cis-4-{[4-(dimethylamino)-5,6,7,8-tetrahydroquinazolin-2-yl]amino}cyclohexyl)thiophene-3-carboxamide], the class was 1 (Class 1: The value of percent of control at 10^−7 M was less than 40% or the value of IC50 was less than 50 nM.). `CCCSc1ncccc1C(=O)N[C@H]1CC[C@@H](Nc2nc3c(c(N(C)C)n2)CCCC3)CC1` [compound 520]: the class is recorded as 2 (Class 2: The value of percent of control at 10^−7 M was from 40% to 60% or the value of IC′50 was from 50 nM to 200 nM.).

`CN(C)c1nc(N[C@H]2CC[C@@H](NC(=O)c3cc(C(C)(C)C)nn3Cc3ccccc3)CC2)nc2c1CCCC2` [compound 521]: the class was 2 (Class 2: The value of percent of control at 10^−7 M was from 40% to 60% or the value of IC′50 was from 50 nM to 200 nM.).

For the compound `CN(C)c1nc(N[C@H]2CC[C@@H](NC(=O)c3cc(C(C)(C)C)nn3C)CC2)nc2c1CCCC2` [compound 522], the class is 3 (Class 3 The value of percent of control at 10^−7 M was more than 60% or the value of IC50 was more than 200 nM.). As to `C/C(=C\c1ccccc1)C(=O)N[C@H]1CC[C@@H](Nc2nc3c(c(N(C)C)n2)CCCC3)CC1` [compound 523], the class was 3 (Class 3 The value of percent of control at 10^−7 M was more than 60% or the value of IC50 was more than 200 nM.). As to `CN(C)c1nc(N[C@H]2CC[C@@H](NC(=O)c3cncc(Br)c3)CC2)nc2c1CCCC2` [compound 524, 5-bromo-N-(cis-4-{[4-(dimethylamino)-5,6,7,8-tetrahydroquinazolin-2-yl]amino}cyclohexyl)nicotinamide], the class is given as 1 (Class 1: The value of percent of control at 10^−7 M was less than 40% or the value of IC50 was less than 50 nM.). Turning to `CN(C)c1nc(N[C@H]2CC[C@@H](NC(=O)Cc3cccc4ccccc34)CC2)nc2c1CCCC2` [compound 525], the class is reported as 3 (Class 3 The value of percent of control at 10^−7 M was more than 60% or the value of IC50 was more than 200 nM.). For `Cc1cc(C(=O)N[C@H]2CC[C@@H](Nc3nc4c(c(N(C)C)n3)CCCC4)CC2)nn1C(C)(C)C` [compound 526], the class is listed as 3 (Class 3 The value of percent of control at 10^−7 M was more than 60% or the value of IC50 was more than 200 nM.).
